Among the data in patent US9266878B2, “Phosphatidylinositol 3-kinase inhibitors” (Gilead Calistoga LLC, priority 2012, dated 2016) are IC50 values, retold here.

The term IC50 denotes the midpoint of a concentration-inhibition curve. A low value points to greater potency in that assay.

Experiment in all cases: Enzymatic activity of PI3K isoforms, TR-FRET assay (PIP3 formation)
Type in all cases: biochemical
(In TR-FRET formats the signal depends on donor and acceptor labels being close together.)

Experiment [1] addresses PI3Kα (Homo sapiens (Human), UniProt P42336). As to conditions: bound given in uM. In short, it runs like this: (§1)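 After 30 min at 25° C, reactions were quenched with 10 mM EDTA plus 10 nM labeled-PIP3 and 35 nM Europium-GRP-1, and TR-FRET was read (Ex 340, Em 615/665 nm). Enzymes were purified recombinant heterodimers; product PIP3 competes off the labeled tracer. Values given as IC50, nM.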

Experiment [2] concerns the target PI3Kγ (Homo sapiens (Human), UniProt P48736). In a few lines:
(§2)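 IC50 (nM) reflects inhibition of PIP3 formation by purified recombinant heterodimeric PI3K, measured as loss of TR-FRET signal. The read-out comes from competition between enzyme-made PIP3 and labelled PIP3 for binding to the GRP-1 pleckstrin homology domain.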

For experiment [3], the target named is PI3Kβ (Homo sapiens (Human), UniProt P42338). In short, it runs like this:
as §2

The target in experiment [4] is PI3Kδ (Homo sapiens (Human), UniProt O00329). As to conditions: bound given in nM. In a few lines: as §1
Sequence of PI3Kδ (O00329 whole entry): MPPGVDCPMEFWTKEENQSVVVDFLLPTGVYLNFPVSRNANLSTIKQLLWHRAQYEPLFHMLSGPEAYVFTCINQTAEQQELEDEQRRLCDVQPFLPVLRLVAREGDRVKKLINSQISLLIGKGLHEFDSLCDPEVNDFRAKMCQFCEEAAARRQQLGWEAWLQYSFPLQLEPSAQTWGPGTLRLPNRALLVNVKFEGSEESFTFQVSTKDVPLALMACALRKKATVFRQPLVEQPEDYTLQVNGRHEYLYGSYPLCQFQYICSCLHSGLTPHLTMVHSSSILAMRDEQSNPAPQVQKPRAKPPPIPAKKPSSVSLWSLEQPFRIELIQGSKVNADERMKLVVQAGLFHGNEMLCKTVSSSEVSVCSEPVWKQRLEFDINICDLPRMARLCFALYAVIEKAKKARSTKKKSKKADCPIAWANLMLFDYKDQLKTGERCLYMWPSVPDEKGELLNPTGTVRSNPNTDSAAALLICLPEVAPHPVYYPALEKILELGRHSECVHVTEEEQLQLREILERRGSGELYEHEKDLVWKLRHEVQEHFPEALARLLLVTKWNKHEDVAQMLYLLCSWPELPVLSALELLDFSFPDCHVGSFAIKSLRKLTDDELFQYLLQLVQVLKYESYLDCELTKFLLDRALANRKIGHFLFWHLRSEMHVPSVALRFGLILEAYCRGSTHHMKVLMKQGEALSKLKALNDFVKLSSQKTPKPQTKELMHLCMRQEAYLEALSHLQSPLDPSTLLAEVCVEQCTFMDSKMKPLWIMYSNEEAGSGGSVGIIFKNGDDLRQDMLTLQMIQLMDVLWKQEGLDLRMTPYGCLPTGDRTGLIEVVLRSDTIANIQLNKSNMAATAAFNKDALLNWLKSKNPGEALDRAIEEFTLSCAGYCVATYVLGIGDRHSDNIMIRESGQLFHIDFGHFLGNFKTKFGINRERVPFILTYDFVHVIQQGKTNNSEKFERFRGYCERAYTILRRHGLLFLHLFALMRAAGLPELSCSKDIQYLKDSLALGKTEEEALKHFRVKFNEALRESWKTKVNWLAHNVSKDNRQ
Sequence of PI3Kδ (P27986 whole entry partner): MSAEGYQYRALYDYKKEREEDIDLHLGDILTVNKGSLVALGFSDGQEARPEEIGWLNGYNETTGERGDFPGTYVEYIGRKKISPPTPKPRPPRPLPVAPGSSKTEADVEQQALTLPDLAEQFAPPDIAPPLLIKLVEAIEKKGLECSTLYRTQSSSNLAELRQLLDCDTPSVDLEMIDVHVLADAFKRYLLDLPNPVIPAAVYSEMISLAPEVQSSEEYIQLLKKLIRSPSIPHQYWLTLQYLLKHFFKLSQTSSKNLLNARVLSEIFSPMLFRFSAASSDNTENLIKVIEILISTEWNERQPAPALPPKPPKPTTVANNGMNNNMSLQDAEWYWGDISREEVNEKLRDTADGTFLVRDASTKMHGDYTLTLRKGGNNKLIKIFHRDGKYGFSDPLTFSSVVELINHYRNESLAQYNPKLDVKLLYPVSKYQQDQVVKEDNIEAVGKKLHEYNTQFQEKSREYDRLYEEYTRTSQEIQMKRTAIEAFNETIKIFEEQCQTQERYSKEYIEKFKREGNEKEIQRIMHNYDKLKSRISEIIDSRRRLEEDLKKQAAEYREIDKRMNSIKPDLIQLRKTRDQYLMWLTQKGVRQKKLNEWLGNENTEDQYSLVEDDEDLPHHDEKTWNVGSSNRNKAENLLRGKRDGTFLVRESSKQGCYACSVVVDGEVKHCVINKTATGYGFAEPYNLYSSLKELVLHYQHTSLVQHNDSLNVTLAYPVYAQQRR

Sequence of PI3Kβ (P42338 whole entry): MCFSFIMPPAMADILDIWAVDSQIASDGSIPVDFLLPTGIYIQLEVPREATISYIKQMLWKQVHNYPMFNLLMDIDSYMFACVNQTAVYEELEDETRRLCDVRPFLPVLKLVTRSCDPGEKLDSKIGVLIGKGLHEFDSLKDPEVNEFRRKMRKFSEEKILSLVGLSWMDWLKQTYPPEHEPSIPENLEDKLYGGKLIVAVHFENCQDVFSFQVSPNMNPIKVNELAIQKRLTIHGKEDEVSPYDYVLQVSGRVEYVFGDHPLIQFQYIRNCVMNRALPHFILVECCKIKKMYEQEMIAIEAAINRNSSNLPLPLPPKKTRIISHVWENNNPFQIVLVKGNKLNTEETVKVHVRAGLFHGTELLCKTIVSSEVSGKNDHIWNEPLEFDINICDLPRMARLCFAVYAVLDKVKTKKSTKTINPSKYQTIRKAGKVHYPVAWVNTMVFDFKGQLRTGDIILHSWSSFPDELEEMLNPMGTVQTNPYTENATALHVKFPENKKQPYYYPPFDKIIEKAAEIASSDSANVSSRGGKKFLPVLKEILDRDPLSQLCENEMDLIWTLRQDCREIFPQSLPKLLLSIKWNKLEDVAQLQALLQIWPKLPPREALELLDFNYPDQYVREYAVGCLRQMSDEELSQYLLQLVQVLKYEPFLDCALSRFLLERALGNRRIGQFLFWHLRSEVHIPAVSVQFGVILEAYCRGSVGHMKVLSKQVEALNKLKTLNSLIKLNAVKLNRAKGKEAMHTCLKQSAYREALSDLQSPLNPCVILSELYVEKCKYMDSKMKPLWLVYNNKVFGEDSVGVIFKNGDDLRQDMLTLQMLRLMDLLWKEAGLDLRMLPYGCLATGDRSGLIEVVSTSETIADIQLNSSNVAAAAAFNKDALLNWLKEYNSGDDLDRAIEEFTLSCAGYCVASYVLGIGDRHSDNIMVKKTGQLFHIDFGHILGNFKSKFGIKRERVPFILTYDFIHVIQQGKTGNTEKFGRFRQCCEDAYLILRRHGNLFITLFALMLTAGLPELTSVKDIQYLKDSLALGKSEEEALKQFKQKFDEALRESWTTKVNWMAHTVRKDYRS
Sequence of PI3Kβ (P27986 whole entry partner): as the sequence (P27986 whole entry partner) above
Sequence of PI3Kα (P42336 whole entry): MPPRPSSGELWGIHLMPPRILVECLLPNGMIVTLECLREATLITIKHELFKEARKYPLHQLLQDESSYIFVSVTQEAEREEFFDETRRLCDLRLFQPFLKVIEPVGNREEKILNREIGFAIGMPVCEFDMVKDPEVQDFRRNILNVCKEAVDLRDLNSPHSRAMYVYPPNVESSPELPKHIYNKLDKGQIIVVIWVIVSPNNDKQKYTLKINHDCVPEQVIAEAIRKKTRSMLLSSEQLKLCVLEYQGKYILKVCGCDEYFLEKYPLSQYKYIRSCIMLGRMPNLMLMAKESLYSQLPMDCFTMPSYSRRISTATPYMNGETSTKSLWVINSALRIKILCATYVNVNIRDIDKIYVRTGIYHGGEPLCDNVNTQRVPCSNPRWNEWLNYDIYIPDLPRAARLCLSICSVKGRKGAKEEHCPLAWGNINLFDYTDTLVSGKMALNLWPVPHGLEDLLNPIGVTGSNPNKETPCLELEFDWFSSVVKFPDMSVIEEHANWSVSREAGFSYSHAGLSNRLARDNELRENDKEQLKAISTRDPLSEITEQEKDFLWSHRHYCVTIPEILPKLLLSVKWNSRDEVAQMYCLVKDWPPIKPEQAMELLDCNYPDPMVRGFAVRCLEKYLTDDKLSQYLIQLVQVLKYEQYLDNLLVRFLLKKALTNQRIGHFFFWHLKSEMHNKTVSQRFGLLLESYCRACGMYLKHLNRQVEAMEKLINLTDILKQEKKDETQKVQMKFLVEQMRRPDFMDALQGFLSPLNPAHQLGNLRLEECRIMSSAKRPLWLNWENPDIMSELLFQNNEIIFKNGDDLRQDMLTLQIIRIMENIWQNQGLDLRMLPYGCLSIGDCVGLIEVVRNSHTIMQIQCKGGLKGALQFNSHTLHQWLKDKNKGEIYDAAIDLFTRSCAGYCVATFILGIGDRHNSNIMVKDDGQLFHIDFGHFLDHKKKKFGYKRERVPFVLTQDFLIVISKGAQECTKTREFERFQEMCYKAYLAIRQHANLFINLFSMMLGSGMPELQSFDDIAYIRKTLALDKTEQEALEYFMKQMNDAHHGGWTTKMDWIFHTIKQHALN
Sequence of PI3Kα (P27986 whole entry partner): as the sequence (P27986 whole entry partner) above

On to `Nc1ncnc(N2CCCC[C@H]2c2nc3cccc(Cl)c3c(=O)n2-c2ccccc2)c1C#Cc1ccccn1` [Compound 36a, (S)-2-(1-(6-amino-5-(pyridin-2-ylethynyl)pyrimidin-4-yl)piperidin-2-yl)-5-chloro-3-phenylquinazolin-4(3H)-one], for which the IC50 in experiment [1], in experiment [2] (bound given in uM) and in experiment [3] (bound given in uM) was > 1 µM each time.

As for `C[C@H](Nc1ncnc(N)c1C#Cc1ccccc1)c1nc2cccc(Cl)c2c(=O)n1-c1ccccc1` [Compound 51a, (S)-2-(1-(6-amino-5-(phenylethynyl)pyrimidin-4-ylamino)ethyl)-5-chloro-3-phenylquinazolin-4(3H)-one], the IC50 in experiment [4] was < 100 nM; in experiment [2] (bound given in nM) it was < 0.1 µM; in experiment [3] (bound given in nM), < 0.1 µM.

Consider `C[C@H](Nc1ncnc(N)c1C#Cc1cn[nH]c1)c1nc2cccc(Cl)c2c(=O)n1-c1ccccc1` [Compound 49a, (S)-2-(1-(5-((1H-pyrazol-4-yl)ethynyl)-6-aminopyrimidin-4-ylamino)ethyl)-5-chloro-3-phenylquinazolin-4(3H)-one], for which the IC50 in experiment [4] is < 100 nM; in experiment [2] (bound given in nM) it was < 0.1 µM; in experiment [3] (bound given in nM), < 0.1 µM.

In the case of `CC(C)OC(=O)c1ccc(C#Cc2c(N)ncnc2N[C@@H](C)c2nc3cccc(Cl)c3c(=O)n2-c2ccccc2)nc1` [Compound 137a, (S)-isopropyl 6-((4-amino-6-((1-(5-chloro-4-oxo-3-phenyl-3,4-dihydroquinazolin-2-yl)ethyl)amino)pyrimidin-5-yl)ethynyl)nicotinate], the IC50 in experiment [1], in experiment [2] (bound given in uM) and in experiment [3] (bound given in uM) was > 1 µM throughout.

For the compound `C[C@H](Nc1ncnc(N)c1C#Cc1cc(CO)ccn1)c1nc2cccc(Cl)c2c(=O)n1-c1ccccc1` [Compound 154a, (S)-2-(1-((6-amino-5-((4-(hydroxymethyl)pyridin-2-yl)ethynyl)pyrimidin-4-yl)amino)ethyl)-5-chloro-3-phenylquinazolin-4(3H)-one], the IC50 is < 100 nM in experiment [4], < 0.1 µM in experiment [2] (bound given in nM) and < 0.1 µM in experiment [3] (bound given in nM).

As for `C[C@H](Nc1ncnc(N)c1C#Cc1ccc2nc(N)sc2c1)c1nc2cccc(Cl)c2c(=O)n1-c1ccccc1` [Compound 46a, (S)-2-(1-(6-amino-5-((2-aminobenzo [d]thiazol-6-yl)ethynyl)pyrimidin-4-ylamino)ethyl)-5-chloro-3-phenylquinazolin-4(3H)-one], the IC50 in experiment [4] is < 100 nM; in experiment [2] (bound given in nM) it was < 0.1 µM; in experiment [3] (bound given in nM) it was < 0.1 µM.

For `C[C@H](Nc1ncnc(N)c1C#Cc1cc(C(=O)O)ccn1)c1nc2cccc(Cl)c2c(=O)n1-c1ccccc1` [Compound 160a, (S)-2-((4-amino-6-((1-(5-chloro-4-oxo-3-phenyl-3,4-dihydroquinazolin-2-yl)ethyl)amino)pyrimidin-5-yl)ethynyl)isonicotinic acid], the IC50 was < 100 nM in experiment [4], > 1 µM in experiment [2] (bound given in uM) and < 0.1 µM in experiment [3] (bound given in nM).

`C[C@H](Nc1nc(N)nc(N)c1C#Cc1ccc(F)cn1)c1nc2cccc(Cl)c2c(=O)n1-c1ccccc1` [Compound 83a, (S)-5-chloro-2-(1-((2,6-diamino-5-((5-fluoropyridin-2-yl)ethynyl)pyrimidin-4-yl)amino)ethyl)-3-phenylquinazolin-4(3H)-one]: the IC50 is > 1 µM in experiment [1], < 100 nM in experiment [4] and > 1 µM in experiment [3] (bound given in uM).

`C[C@H](Nc1ncnc(N)c1C#Cc1ccccn1)c1nc2cccc(Cl)c2c(=O)n1-c1cccc(C(N)=O)c1` [Compound 38a, (S)-3-(2-(1-(6-amino-5-(pyridin-2-ylethynyl)pyrimidin-4-ylamino)ethyl)-5-chloro-4-oxoquinazolin-3(4H)-yl)benzamide]: the figures for the IC50 in experiment [4], in experiment [2] (bound given in uM) and in experiment [3] (bound given in nM) were < 100 nM, > 1 µM and < 0.1 µM, respectively.

Regarding `CC(O)c1cccc(C#Cc2c(N)ncnc2N[C@@H](C)c2nc3cccc(Cl)c3c(=O)n2-c2ccccc2)n1` (stereo partly drawn) [Compound 157a, 2-((1S)-1-((6-amino-5-((6-(1-hydroxyethyl)pyridin-2-yl)ethynyl)pyrimidin-4-yl)amino)ethyl)-5-chloro-3-phenylquinazolin-4(3H)-one], the IC50 in experiment [1] is > 1 µM; in experiment [4], < 100 nM; in experiment [3] (bound given in nM) it was < 0.1 µM.

As for `C[C@H](Nc1ncnc(N)c1C#Cc1cncnc1)c1nc2cccc(Cl)c2c(=O)n1-c1ccccc1` [Compound 42a, (S)-2-(1-(6-amino-5-(pyrimidin-5-ylethynyl)pyrimidin-4-ylamino)ethyl)-5-chloro-3-phenylquinazolin-4(3H)-one], the IC50 in experiment [1] is > 1 µM; in experiment [4], < 100 nM; in experiment [3] (bound given in uM) it was > 1 µM.

Take `C[C@H](Nc1ncnc(N)c1C#Cc1cccc(CO)n1)c1nc2cccc(Cl)c2c(=O)n1-c1ccccc1` [Compound 155a, (S)-2-(1-((6-amino-5-((6-(hydroxymethyl)pyridin-2-yl)ethynyl)pyrimidin-4-yl)amino)ethyl)-5-chloro-3-phenylquinazolin-4(3H)-one]: the IC50 in experiment [4] is < 100 nM; in experiment [2] (bound given in nM) it was < 0.1 µM; in experiment [3] (bound given in nM) it was > 0.001 µM.

As to `C[C@H](Nc1nc(N)nc(N)c1C#Cc1ccc(F)cn1)c1nc2cccc(Cl)c2c(=O)n1-c1cc(F)cc(F)c1` [Compound 78a, (S)-5-chloro-2-(1-((2,6-diamino-5-((5-fluoropyridin-2-yl)ethynyl)pyrimidin-4-yl)amino)ethyl)-3-(3,5-difluorophenyl)quinazolin-4(3H)-one], the values for the IC50 in experiment [1], in experiment [4] and in experiment [3] (bound given in uM) were > 1 µM, < 100 nM and > 1 µM, respectively.

Turning to `Cc1cccnc1C#Cc1c(N)ncnc1N[C@@H](C)c1nc2cccc(Cl)c2c(=O)n1-c1ccccc1` [Compound 143a, (S)-2-(1-((6-amino-5-((3-methylpyridin-2-yl)ethynyl)pyrimidin-4-yl)amino)ethyl)-5-chloro-3-phenylquinazolin-4(3H)-one], the IC50 in experiment [1] is > 1 µM; in experiment [4], < 100 nM; in experiment [3] (bound given in nM), < 0.1 µM.

As for `C[C@H](Nc1ncnc(N)c1C#Cc1ccc(C(N)=O)cn1)c1nc2cccc(Cl)c2c(=O)n1-c1cc(F)cc(F)c1` [Compound 136a, (S)-6-((4-amino-6-((1-(5-chloro-3-(3,5-difluorophenyl)-4-oxo-3,4-dihydroquinazolin-2-yl)ethyl)amino)pyrimidin-5-yl)ethynyl)nicotinamide], the IC50 was > 1 µM in experiment [1], < 100 nM in experiment [4] and > 1 µM in experiment [3] (bound given in uM).

For `C[C@H](Nc1ncnc(N)c1C#Cc1cccnc1)c1nc2cccc(Cl)c2c(=O)n1-c1cc(F)cc(F)c1` [Compound 43a, (S)-2-(1-(6-amino-5-(pyridin-3-ylethynyl)pyrimidin-4-ylamino)ethyl)-5-chloro-3-(3,5-difluorophenyl)quinazolin-4(3H)-one], the values for the IC50 in experiment [1], in experiment [4] and in experiment [3] (bound given in uM) were > 1 µM, < 100 nM and > 1 µM, respectively.

With `C[C@H](Nc1ncnc(N)c1C#Cc1ccc(F)cn1)c1nc2cccc(C(F)F)c2c(=O)n1-c1ccccc1` [Compound 67a, (S)-2-(1-((6-amino-5-((5-fluoropyridin-2-yl)ethynyl)pyrimidin-4-yl)amino)ethyl)-5-(difluoromethyl)-3-phenylquinazolin-4(3H)-one], the IC50 is > 1 µM in experiment [1], < 100 nM in experiment [4] and > 1 µM in experiment [3] (bound given in uM).
